Source: US7858617B2, “2-oxy-benzoxazinone derivatives for the treatment of obesity” (Norgine B.V., priority 1999, dated 2010)

Tests used:
Format in all cases: biochemical
human pancreatic lipase = target: T1, human pancreatic lipase (Homo sapiens, UniProt P16233); assay: Lipase activity, quinine diimine dye calorimetric assay (Sigma Lipase-PS); details: at 500 nM; read-out: inhibited % of the pancreatic lipase activity
T1 sequence (P16233 17-465): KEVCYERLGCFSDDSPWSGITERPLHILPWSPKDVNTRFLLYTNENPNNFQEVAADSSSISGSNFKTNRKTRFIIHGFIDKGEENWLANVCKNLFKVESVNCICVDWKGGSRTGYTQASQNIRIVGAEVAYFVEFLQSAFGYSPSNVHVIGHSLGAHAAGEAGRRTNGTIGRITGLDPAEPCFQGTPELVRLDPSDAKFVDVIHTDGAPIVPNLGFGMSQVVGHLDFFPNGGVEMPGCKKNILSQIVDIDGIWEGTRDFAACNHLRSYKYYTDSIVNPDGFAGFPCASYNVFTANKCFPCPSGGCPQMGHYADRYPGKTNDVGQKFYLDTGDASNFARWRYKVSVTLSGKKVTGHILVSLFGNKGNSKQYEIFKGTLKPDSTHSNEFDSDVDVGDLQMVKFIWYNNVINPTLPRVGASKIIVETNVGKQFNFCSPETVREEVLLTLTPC
Experimental: Measurement of Lipase Activity Using a Quinine Diimine Dye Calorimetric Assay
The inhibitory activity of the selected compounds to pancreatic lipase was measured in the following assay available from Sigma Ltd (Lipase-PS™, catalog number 805-A):
The glycerol released from the action of pancreatic and monoglyceride lipase was oxidised to release H2O2. The peroxidase reaction step then produces a quinine dye which is pink in colour and absorbs light at a wavelength of 550 nm.
Individual test compounds were dissolved in DMSO (dimethyl sulphoxide) at 10 mM. DMSO was used to avoid any problems with compounds being water-insoluble. For individual compounds, the IC50 (concentration at which lipase activity is inhibited to one half of the maximum) was calculated by measuring the inhibitory activity from log-dose response curves using a range of inhibitor concentrations.
A range of compounds was assayed in the quinine diimine dye calorimetric assay which provides a rapid method to measure lipase inhibitory activity.

Porcine trypsin = target: T2, Porcine trypsin (Sus scrofa, UniProt P00761); assay: Measurement of trypsin activity; details: at 500 nM; read-out: inhibited % of the trypsin activity
T2 construct: purchased Boehringer
Experimental: Measurement of Trypsin Activity
Porcine trypsin (Boehringer) was dissolved at a concentration of 1 mg/ml in 100 mM MOPS (3-[N-Morpholino]propanesulphonic acid) pH 7.3 containing 2 mM CaCl2. Prior to use, the enzyme was diluted 500 times to give a final concentration of 2 μg/ml.
Selected compounds were routinely stored as 5 mM stock solutions dissolved in DMSO (Dimethylsulphoxide) at −20° C. For the assay, aliquots were defrosted and a series of dilutions (×100, ×200, ×1,000, ×2,000, ×10,000, ×20,000 and ×100,000) made in 100 mM MOPS pH 7.3 containing 2 mM CaCl2. The substrate Bz-Phe-Val-Arg-pNA (Benzoyl-phenylalanyl-valyl-arginine-p-nitroanilide) was dissolved in DMSO to give a 10 mM solution. Immediately prior to use, the substrate was diluted to 0.3 mM (30 μl/ml) in 100 mM MOPS containing […].
(§1) The assay was set up in triplicate in a 96 well ELISA plate. 10 μl 2 μg/ml trypsin, 26 μl diluted inhibitor and 190 μl substrate were added sequentially. The plates were then incubated at 37° C. in a BioRad Benchmark Microplate Reader. The rate of release of p-nitroaniline was measured at […] over 10 minutes relative to that of the enzyme without inhibitor.

Bovine Chymotrypsin = target: T3, Bovine Chymotrypsin (Bos taurus, UniProt P00766); assay: Measurement of chymotrypsin activity; details: at 500 nM; read-out: inhibited % of the chymotrypsin activity
T3 construct: purchased Sigma C4129
Experimental: Measurement of Chymotrypsin Activity
Bovine Chymotrypsin (Sigma Type 11 Cat. No. C4129) was dissolved at a concentration of 1 mg/ml in 100 mM Tris pH 7.8. Prior to use, the enzyme was diluted 20 fold immediately before use, with the same buffer.
Selected compounds were routinely stored as 5 mM stock solutions dissolved in DMSO (Dimethylsulphoxide) at −20° C. For the assay, aliquots were defrosted and a series of dilutions (×20, ×100, ×200, ×1,000, ×2,000, ×10,000, ×20,000 and ×100,000) made in 100 mM Tris pH 7.8. The substrate H-Ala-Ala-Phe-p-nitroanilide (H-alanyl-alanyl-phenylalanine-p-nitroanilide) (Bachem Cat. No. L-1095) was dissolved in DMSO to give a 10 mM stock and stored at 4° C. until use. Immediately prior to use, the substrate was diluted to 0.3 mM final concentration (30 μl/ml) just before use.
as §1, with “50” for “2”, “chymotrypsin, 50” for “trypsin, 26”

T2 sequence (P00761 9-231): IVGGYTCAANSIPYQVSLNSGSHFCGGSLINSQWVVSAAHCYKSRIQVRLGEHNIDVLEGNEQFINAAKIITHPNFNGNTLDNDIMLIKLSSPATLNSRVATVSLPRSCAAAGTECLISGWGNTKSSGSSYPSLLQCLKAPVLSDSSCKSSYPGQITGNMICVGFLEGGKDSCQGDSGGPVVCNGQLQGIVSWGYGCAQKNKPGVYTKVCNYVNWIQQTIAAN

SMILES: CCCCCCCCCCCCCCCCOc1nc2ccc(C)cc2c(=O)o1 [Compound 18, 2-Hexadecyloxy-6-methyl-4H-3,1-benzoxazin-4-one]
- inhibition at 0.5 µM (human pancreatic lipase): 98.7%
- inhibition at 0.5 µM (Porcine trypsin): 4%
- inhibition at 0.5 µM (Bovine Chymotrypsin): 12.5%
